Source: patent publication US6552068B1, “3-ethyl-, 3-propyl- or 3-butyl-chroman and thiochroman derivatives” (Chugai Seiyaku Kabushiki Kaisha, priority 1999, dated 2003)

system: ovariectomized mice administered with 17β-estradiol (increase in uterine weight); assay: Anti-estrogenic activity (oral administration): inhibition of estradiol-induced increase in uterine weight; assay type: in vivo; conditions: 10 mg/kg p.o. once a day for 3 days, suspended in 5% arabic gum; ovariectomized ICR mice given 17β-estradiolbenzoate 0.1 μg/mouse s.c. for 3 days; uteri weighed 24 hours after last administration
Experimental: Test compounds were assayed for their oral anti-estrogenic activity in the following manner. In this experiment, the compounds prepared in Examples mentioned above were used as test compounds. As control compounds, the following two were used: a compound described in Example 7 of WO98/25916 and a compound corresponding to general formula (1) of the present invention, provided that R1 was a methyl group, i.e., 10-[(3RS,4RS)-7-hydroxy-3-(4-hydroxyphenyl)-3-methylthiochroman-4-yl]-2-(4,4,5,5,5-pentafluoropentyl)decanoic acid, which had been synthesized according to Reaction Schemes 1 to 7 mentioned above.
In this experiment, each of the test and control compounds was suspended in 5% arabic gum solution and orally administered for 3 days on a once-a-day basis. After 24 hours from the last administration, the test animals were sacrificed and the uteri were removed and weighed.

Question: For `CCC[C@@]1(c2ccc(O)cc2)CSc2cc(O)ccc2[C@@H]1CCCCCCCCCC(CCCC(F)(F)C(F)(F)F)C(=O)O` (mixture of isomers) [Example 38, 11-[(3RS,4RS)-7-hydroxy-3-(4-hydroxyphenyl)-3-propylthiochroman-4-yl]-2-(4,4,5,5,5,-pentafluoropentyl)undecanoic acid], which “Inhibition (%) of the increase in uterine weight” value is on record?
Answer: Its value is 84%.

same assay, conditions: po; 10 mg/kg p.o. once a day for 3 days, suspended in 5% arabic gum; ovariectomized ICR mice given 17β-estradiolbenzoate 0.1 μg/mouse s.c. for 3 days; uteri weighed 24 hours after last administration

Question: `CC[C@]1(c2ccc(O)cc2)CSc2cc(O)ccc2[C@H]1CCCCCCCCCC(CCCC(F)(F)C(F)(F)F)C(=O)O` (mixture of isomers) [Example 20, 11-[(3RS,4RS)-3-ethyl-7-hydroxy-3-(4-hydroxyphenyl)thiochroman-4-yl]-2-(4,4,5,5,5-pentafluoropentyl)undecanoic acid] was tested. Which inhibition in vivo at 10 mg/kg did it give?
Answer: Its inhibition in vivo at 10 mg/kg is 91%.

Question: Which inhibition in vivo at 10 mg/kg does the source give for `CC[C@@]1(c2ccc(O)cc2)COc2cc(O)ccc2[C@@H]1CCCCCCCCCC(CCCC(F)(F)C(F)(F)C(F)(F)C(F)(F)F)C(=O)O` (mixture of isomers) [Example 35, 11-[(3RS,4RS)-3-ethyl-7-hydroxy-3-(4-hydroxyphenyl)chroman-4-yl]-2-(4,4,5,5,6,6,7,7,7-nonafluoroheptyl)undecanoic acid] here?
Answer: The inhibition in vivo at 10 mg/kg was 93%.

Question: How did the inhibition in vivo at 10 mg/kg turn out when `CC[C@@]1(c2ccc(O)cc2)COc2cc(O)ccc2[C@@H]1CCCCCCCCCC(CCC(F)(F)C(F)(F)C(F)(F)C(F)(F)F)C(=O)O` (mixture of isomers) [Example 32, 11-[(3RS,4RS)-3-ethyl-7-hydroxy-3-(4-hydroxyphenyl)chroman-4-yl]-2-(3,3,4,4,5,5,6,6,6-nonafluorohexyl)undecanoic acid] was run?
Answer: Its inhibition in vivo at 10 mg/kg is 82%.

Question: Which inhibition in vivo at 10 mg/kg does the source give for `CCC[C@@]1(c2ccc(O)cc2)COc2cc(O)ccc2[C@@H]1CCCCCCCCC(CCC(F)(F)C(F)(F)C(F)(F)C(F)(F)F)C(=O)O` (mixture of isomers) [Example 41, 10-[(3RS,4RS)-7-hydroxy-3-(4-hydroxyphenyl)-3-propylchroman-4-yl]-2-(3,3,4,4,5,5,6,6,6-nonafluorohexyl)decanoic acid] here?
Answer: Its inhibition in vivo at 10 mg/kg is 89%.

Question: For `CC[C@@]1(c2ccc(O)cc2)COc2cc(O)ccc2[C@@H]1CCCCCCCCC(CCCC(F)(F)C(F)(F)C(F)(F)C(F)(F)F)C(=O)O` (mixture of isomers) [Example 34, 10-[(3RS,4RS)-3-ethyl-7-hydroxy-3-(4-hydroxyphenyl)chroman-4-yl]-2-(4,4,5,5,6,6,7,7,7-nonafluoroheptyl)decanoic acid], which inhibition in vivo at 10 mg/kg is on record?
Answer: The inhibition in vivo at 10 mg/kg was 90%.

Question: `CCC[C@@]1(c2ccc(O)cc2)COc2cc(O)ccc2[C@@H]1CCCCCCCCCC(CCCC(F)(F)C(F)(F)F)C(=O)O` (mixture of isomers) [Example 43, 11-[(3RS,4RS)-7-hydroxy-3-(4-hydroxyphenyl)-3-propylchroman-4-yl]-2-(4,4,5,5,5-pentafluoropentyl)undecanoic acid] was tested. Which inhibition in vivo at 10 mg/kg did it give?
Answer: Its inhibition in vivo at 10 mg/kg is 85%.

Question: With `CCC[C@@]1(c2ccc(O)cc2)COc2cc(O)ccc2[C@@H]1CCCCCCCCC(CCCC(F)(F)C(F)(F)C(F)(F)C(F)(F)F)C(=O)O` (mixture of isomers) [Example 42, 10-[(3RS,4RS)-7-hydroxy-3-(4-hydroxyphenyl)-3-propylchroman-4-yl]-2-(4,4,5,5,6,6,7,7,7-nonafluoroheptyl)decanoic acid] as the compound, how does the inhibition in vivo at 10 mg/kg read?
Answer: The inhibition in vivo at 10 mg/kg was 95%.

Question: With `CC[C@]1(c2ccc(O)cc2)CSc2cc(O)ccc2[C@H]1CCCCCCCCC(CCCCC(F)(F)C(F)(F)F)C(=O)O` (mixture of isomers) [Example 15, 10-[(3RS,4RS)-3-ethyl-7-hydroxy-3-(4-hydroxyphenyl)thiochroman-4-yl]-2-(5,5,6,6,6-pentafluorohexyl)decanoic acid] as the compound, how does the inhibition in vivo at 10 mg/kg read?
Answer: The inhibition in vivo at 10 mg/kg was 92%.

Question: For `CCC[C@@]1(c2ccc(O)cc2)COc2cc(O)ccc2[C@@H]1CCCCCCCCCC(CCC(F)(F)C(F)(F)C(F)(F)C(F)(F)F)C(=O)O` (mixture of isomers) [Example 45, 11-[(3RS,4RS)-7-hydroxy-3-(4-hydroxyphenyl)-3-propylchroman-4-yl]-2-(3,3,4,4,5,5,6,6,6-nonafluorohexyl)undecanoic acid], which inhibition in vivo at 10 mg/kg is on record?
Answer: The inhibition in vivo at 10 mg/kg was 85%.

Question: Which inhibition in vivo at 10 mg/kg does the source give for `CCC[C@@]1(c2ccc(O)cc2)COc2cc(O)ccc2[C@@H]1CCCCCCCCCC(CCCC(F)(F)C(F)(F)C(F)(F)C(F)(F)F)C(=O)O` (mixture of isomers) [Example 46, 11-[(3RS,4RS)-7-hydroxy-3-(4-hydroxyphenyl)-3-propylchroman-4-yl]-2-(4,4,5,5,6,6,7,7,7-nonafluoroheptyl)undecanoic acid] here?
Answer: The inhibition in vivo at 10 mg/kg was 94%.

Question: With `CC[C@@]1(c2ccc(O)cc2)COc2cc(O)ccc2[C@@H]1CCCCCCCCCC(CCCCCC(F)(F)C(F)(F)F)C(=O)O` (mixture of isomers) [Example 22, 11-[(3RS,4RS)-3-ethyl-7-hydroxy-3-(4-hydroxyphenyl)chroman-4-yl]-2-(6,6,7,7,7-pentafluoroheptyl)undecanoic acid] as the compound, how does the inhibition in vivo at 10 mg/kg read?
Answer: Its inhibition in vivo at 10 mg/kg is 83%.

Question: How did the inhibition in vivo at 10 mg/kg turn out when `CCC[C@@]1(c2ccc(O)cc2)CSc2cc(O)ccc2[C@@H]1CCCCCCCCC(CCCC(F)(F)C(F)(F)F)C(=O)O` (mixture of isomers) [Example 29, 10-[(3RS,4RS)-7-hydroxy-3-(4-hydroxyphenyl)-3-propylthiochroman-4-yl]-2-(4,4,5,5,5-pentafluoropentyl)decanoic acid] was run?
Answer: Its inhibition in vivo at 10 mg/kg is 91%.

Question: How did the inhibition in vivo at 10 mg/kg turn out when `C[C@@]1(c2ccc(O)cc2)CSc2cc(O)ccc2[C@@H]1CCCCCCCCC(CCCC(F)(F)C(F)(F)F)C(=O)O` (mixture of isomers) [10-[(3RS,4RS)-7-hydroxy-3-(4-hydroxyphenyl)-3-methylthiochroman-4-yl]-2-(4,4,5,5,5-pentafluoropentyl)decanoic acid, reference compound] was run?
Answer: Its inhibition in vivo at 10 mg/kg is 75%.

Question: With `CC[C@@]1(c2ccc(O)cc2)CSc2cc(O)ccc2[C@@H]1CCCCCCCCC(CCC(F)(F)C(F)(F)C(F)(F)C(F)(F)F)C(=O)O` (mixture of isomers) [Example 31, 10-[(3RS,4RS)-3-ethyl-7-hydroxy-3-(4-hydroxyphenyl)thiochroman-4-yl]-2-(3,3,4,4,5,5,6,6,6-nonafluorohexyl)decanoic acid] as the compound, how does the inhibition in vivo at 10 mg/kg read?
Answer: Its inhibition in vivo at 10 mg/kg is 85%.

Question: `CCCC[C@@]1(c2ccc(O)cc2)COc2cc(O)ccc2[C@@H]1CCCCCCCCC(CCCC(F)(F)C(F)(F)C(F)(F)C(F)(F)F)C(=O)O` (mixture of isomers) [Example 47, 10-[(3RS,4RS)-3-butyl-7-hydroxy-3-(4-hydroxyphenyl)chroman-4-yl]-2-(4,4,5,5,6,6,7,7,7-nonafluoroheptyl)decanoic acid] was tested. Which inhibition in vivo at 10 mg/kg did it give?
Answer: The inhibition in vivo at 10 mg/kg was 89%.

Question: For `CCC[C@@]1(c2ccc(O)cc2)CSc2cc(O)ccc2[C@@H]1CCCCCCCCCC(CCC(F)(F)C(F)(F)C(F)(F)C(F)(F)F)C(=O)O` (mixture of isomers) [Example 39, 11-[(3RS,4RS)-7-hydroxy-3-(4-hydroxyphenyl)-3-propylthiochroman-4-yl]-2-(3,3,4,4,5,5,6,6,6-nonafluorohexyl)undecanoic acid], which inhibition in vivo at 10 mg/kg is on record?
Answer: The inhibition in vivo at 10 mg/kg was 84%.

Question: How did the inhibition in vivo at 10 mg/kg turn out when `CCC[C@@]1(c2ccc(O)cc2)COc2cc(O)ccc2[C@@H]1CCCCCCCCCC(CCCCC(F)(F)C(F)(F)F)C(=O)O` (mixture of isomers) [Example 44, 11-[(3RS,4RS)-7-hydroxy-3-(4-hydroxyphenyl)-3-propylchroman-4-yl]-2-(5,5,6,6,6-pentafluorohexyl)undecanoic acid] was run?
Answer: Its inhibition in vivo at 10 mg/kg is 84%.

Question: For `CCC[C@@]1(c2ccc(O)cc2)CSc2cc(O)ccc2[C@@H]1CCCCCCCCC(CCCCC(F)(F)C(F)(F)F)C(=O)O` (mixture of isomers) [Example 36, 10-[(3RS,4RS)-7-hydroxy-3-(4-hydroxyphenyl)-3-propylthiochroman-4-yl]-2-(5,5,6,6,6-pentafluorohexyl)decanoic acid], which inhibition in vivo at 10 mg/kg is on record?
Answer: The inhibition in vivo at 10 mg/kg was 89%.

Question: Which inhibition in vivo at 10 mg/kg does the source give for `CC[C@@]1(c2ccc(O)cc2)CSc2cc(O)ccc2[C@@H]1CCCCCCCCCC(CCC(F)(F)C(F)(F)C(F)(F)C(F)(F)F)C(=O)O` (mixture of isomers) [Example 30, 11-[(3RS,4RS)-3-ethyl-7-hydroxy-3-(4-hydroxyphenyl)thiochroman-4-yl]-2-(3,3,4,4,5,5,6,6,6-nonafluorohexyl)undecanoic acid] here?
Answer: The inhibition in vivo at 10 mg/kg was 89%.

Question: `CC[C@]1(c2ccc(O)cc2)CSc2cc(O)ccc2[C@H]1CCCCCCCCC(CCCCCC(F)(F)C(F)(F)F)C(=O)O` (mixture of isomers) [Example 14, 10-[(3RS,4RS)-3-ethyl-7-hydroxy-3-(4-hydroxyphenyl)thiochroman-4-yl]-2-(6,6,7,7,7-pentafluoroheptyl)decanoic acid] was tested. Which inhibition in vivo at 10 mg/kg did it give?
Answer: Its inhibition in vivo at 10 mg/kg is 81%.

Question: For `CCC[C@@]1(c2ccc(O)cc2)COc2cc(O)ccc2[C@@H]1CCCCCCCCC(CCCCC(F)(F)C(F)(F)F)C(=O)O` (mixture of isomers) [Example 40, 10-[(3RS,4RS)-7-hydroxy-3-(4-hydroxyphenyl)-3-propylchroman-4-yl]-2-(5,5,6,6,6-pentafluorohexyl)decanoic acid], which inhibition in vivo at 10 mg/kg is on record?
Answer: Its inhibition in vivo at 10 mg/kg is 82%.

Question: With `CC[C@]1(c2ccc(O)cc2)CSc2cc(O)ccc2[C@H]1CCCCCCCCC(CCCC(F)(F)C(F)(F)F)C(=O)O` (mixture of isomers) [Example 16, 10-[(3RS,4RS)-3-ethyl-7-hydroxy-3-(4-hydroxyphenyl)thiochroman-4-yl]-2-(4,4,5,5,5-pentafluoropentyl)decanoic acid] as the compound, how does the inhibition in vivo at 10 mg/kg read?
Answer: The inhibition in vivo at 10 mg/kg was 96%.
